Test results: patent US20250074920A1, “MACROCYCLIC COMPOUNDS AND USE AS KINASE INHIBITORS” (BLOSSOMHILL THERAPEUTICS, INC., priority 2022, published 2025)

Columns and labels:
Experiment in all cases: KINOMEscan kinase binding assay
[1] = tested on: ABL1(Q252H)-phosphorylated; settings: at 1 μM
Summary of the method: (§1)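 Dissociation constants came from the amount of kinase captured on the solid support across a test compound concentration series. Captured kinase, T7 phage-fused or HEK-293-made and DNA-tagged, was read by qPCR after a 1 h room-temperature binding step.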

ERBB2 = settings: at 1 μM
Summary of the method: as §1

TIE1 = settings: at 1 μM
Summary of the method: as §1

FLT3(D835V) = settings: at 1 μM
Summary of the method: as §1

[2] = tested on: ABL1(F317L)-phosphorylated; settings: at 1 μM
Summary of the method: as §1

[3] = tested on: EGFR(L747-S752del, P753S); settings: at 1 μM
Summary of the method: as §1

[4] = tested on: ABL1(Y253F)-phosphorylated; settings: at 1 μM
Summary of the method: as §1

ITK = settings: at 1 μM
Summary of the method: as §1

[5] = tested on: JAK1(JH2domain-pseudokinase)
Summary of the method: as §1

PDGFRB = settings: at 1 μM
Summary of the method: as §1

EGFR = settings: at 1 μM
Summary of the method: as §1

ABL1-nonphosphorylated = settings: at 1 μM
Summary of the method: as §1

KIT = settings: at 1 μM
Summary of the method: as §1

ERBB4 = settings: at 1 μM
Summary of the method: as §1

BMX = settings: at 1 μM
Summary of the method: as §1

LCK = settings: at 1 μM
Summary of the method: as §1

[6] = tested on: ABL1(F317I)-nonphosphorylated; settings: at 1 μM
Summary of the method: as §1

DDR1 = settings: at 1 μM
Summary of the method: as §1

SRMS = settings: at 1 μM
Summary of the method: as §1

EPHA7 = settings: at 1 μM
Summary of the method: (§2)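 Immobilized-ligand competition, qPCR-quantified. Kinase sources: T7 phage lysates from BL21-type E. coli, or HEK-293 expression plus DNA tag. Results expressed as % Ctrl (lower = stronger binding) and as Kd from capture versus concentration curves.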

MET(M1250T) = settings: at 1 μM
Summary of the method: as §1

[7] = tested on: EGFR(L747-E749del, A750P); settings: at 1 μM
Summary of the method: as §1

FLT3(K663Q) = settings: at 1 μM
Summary of the method: as §1

[8] = tested on: TYK2(JH2domain-pseudokinase)
Summary of the method: as §2

FER = settings: at 1 μM
Summary of the method: as §1

FGR = settings: at 1 μM
Summary of the method: as §1

EPHA2 = settings: at 1 μM
Summary of the method: as §2

FGFR3 = settings: at 1 μM
Summary of the method: as §1

[9] = tested on: ABL1(F317L)-nonphosphorylated; settings: at 1 μM
Summary of the method: as §1

TIE2 = settings: at 1 μM
Summary of the method: as §1

ALK = settings: at 1 μM
Summary of the method: as §1

EPHA1 = settings: at 1 μM
Summary of the method: as §2

FLT4 = settings: at 1 μM
Summary of the method: as §1

TNK1 = settings: at 1 μM
Summary of the method: as §1

KIT(V559D, T670I) = settings: at 1 μM
Summary of the method: as §1

EGFR(L858R) = settings: at 1 μM
Summary of the method: as §2

KIT(V559D) = settings: at 1 μM
Summary of the method: as §1

CSF1R-autoinhibited = settings: at 1 μM
Summary of the method: as §1

MUSK = settings: at 1 μM
Summary of the method: as §1

EPHB1 = settings: at 1 μM
Summary of the method: as §1

## Cc1cc2c([nH]1)/C=C1\C(=O)Nc3c(Cl)cc(cc31)-c1cn(C)nc1COC[C@@H](C)N(C)C2=O [Cpd. 5, [3a(4)Z,10R]-20-chloro-6,9,10,15-tetramethyl-10,11,13,15-tetrahydro-2H-1,17-(ethanediylidene)pyrazolo[4,3-m]dipyrrolo[3,2-f:3′,4′-i][1,4]oxazacyclopentadecine-3,8(5H,9H)-dione]
[1]
  % Ctrl: 89%
ERBB2
  % Ctrl: 100%
TIE1
  % Ctrl: 91%
FLT3(D835V)
  % Ctrl: 89%
[2]
  % Ctrl: 83%
[3]
  % Ctrl: 86%
[4]
  % Ctrl: 73%
ITK
  % Ctrl: 96%
[5]; JAK1(JH2domain-pseudokinase), at 1 μM
  % Ctrl: 0.85%
[5]; read-out: JAK1(JH2 domain-pseudokinase) Kd
  Kd: 50 nM
PDGFRB
  % Ctrl: 100%
EGFR
  % Ctrl: 96%
ABL1-nonphosphorylated
  % Ctrl: 87%
KIT
  % Ctrl: 98%
ERBB4
  % Ctrl: 97%
BMX
  % Ctrl: 100%
LCK
  % Ctrl: 94%
[6]
  % Ctrl: 90%
DDR1
  % Ctrl: 93%
SRMS
  % Ctrl: 61%
EPHA7
  % Ctrl: 98%
MET(M1250T)
  % Ctrl: 100%
[7]
  % Ctrl: 74%
FLT3(K663Q)
  % Ctrl: 87%
[8]; TYK2(JH2domain-pseudokinase), at 1 μM
  % Ctrl: 0%
[8]; read-out: TYK2(JH2 domain-pseudokinase) Kd
  Kd: 0.18 nM
FER
  % Ctrl: 68%
FGR
  % Ctrl: 93%
EPHA2
  % Ctrl: 100%
FGFR3
  % Ctrl: 90%
[9]
  % Ctrl: 86%
TIE2
  % Ctrl: 92%
ALK
  % Ctrl: 71%
EPHA1
  % Ctrl: 82%
FLT4
  % Ctrl: 98%
TNK1
  % Ctrl: 91%
KIT(V559D, T670I)
  % Ctrl: 95%
EGFR(L858R)
  % Ctrl: 90%
KIT(V559D)
  % Ctrl: 96%
CSF1R-autoinhibited
  % Ctrl: 75%
MUSK
  % Ctrl: 100%
EPHB1
  % Ctrl: 92%
